Experimental data: patent US10898469B2, “Imidazolylamide derivative” (Sumitomo Dainippon Pharma Co., Ltd., priority 2016, dated 2021)
pIC50: −log10 of the molar value. Where two headings read alike, the source gives them in different places.

How the values were obtained:
Assay type in all cases: cell-based, human
[1] = test system: HT-29 cells; test: Inhibition test for sphere-forming ability of cancer cells (Test Example 1), HT-29; conditions: for pIC50: concentration for 50% inhibition of cell proliferation, read-out: IC50 (μmol/L) HT-29 (Sphere IC50 value); for (100%-inhibition rate of cell proliferation) at 1 μmol/L, HT-29: value with %; for viability at 1 µM: read-out: (100%-inhibition rate of cell proliferation) at 1 μmol/L, 1 μmol/L, value with %
Excerpt: (§1) The reliable methods established for measuring the self-renewal ability of cells which is one of the CSC's properties include a method for measuring the sphere-forming ability of cancer cells in non-adherent condition in the absence of serum (Cancer Res 65, 5506-5511 (2005)). Human colorectal cancer-derived HCT-116 cells, human colon-adenocarcinoma-derived HT-29 cells, and human pharyngeal cancer-derived FaDu cells were available from American Type Culture Collection (ATCC). HCT-116 cells and HT-29 cells were cultured at 37° C. under 5% CO2 using the McCoy's 5a medium containing 10% fetal bovine serum (FBS) and 1% penicillin/streptomycin, and FaDu cells were cultured at 37° C. under 5% CO2 using the MEM medium containing 10% FBS, 1% non-essential amino acid, 1% sodium pyruvate, and 1% penicillin/streptomycin. HCT-116 cells, HT-29 cells, and FaDu cells were seeded in a 384 Well Black Clear Bottom Ultra-Low Attachment Microplate (Corning Cat. No. 3827) in an amount of 350-800 cells/well using the DMEM/F12 medium containing 2% B27 supplement (GIBCO), 20 ng/mL epidermal growth factor (EGF) (peprotech), 10 ng/mL basic fibroblast growth factor (bFGF) (peprotech), 5 μg/mL insulin (Sigma), and 1% penicillin/streptomycin. Each test compound was added into each well to adjust the final concentration of DMSO to 0.1%, and the cells were cultured for 4 days. The number of viable cells in each well was then measured with CellTiter-Glo® Luminescent Cell Viability Assay (Promega) to calculate the concentration of each test compound for 50% inhibition of cell proliferation (Sphere IC50 value; μmol/L).
(§2) The experiment of Test Example 1 was performed for each compound of each Example. The concentration of each test compound for 50% inhibition of cell proliferation (Sphere IC50 value; μmol/L) is shown in the following Table.

[2] = test system: FaDu cells; test: Inhibition test for sphere-forming ability of cancer cells (Test Example 1), FaDu; conditions: for pIC50: concentration for 50% inhibition of cell proliferation, read-out: IC50 (μmol/L) FaDu (Sphere IC50 value); for (100%-inhibition rate of cell proliferation) at 1 μmol/L, FaDu: value with %; for viability at 1 µM: read-out: (100%-inhibition rate of cell proliferation) at 1 μmol/L, 1 μmol/L, value with %
Excerpt: as §1, §2

[3] = test system: HCT-116 cells; test: Inhibition test for sphere-forming ability of cancer cells (Test Example 1), HCT-116; conditions: for pIC50 / (100%-inhibition rate of cell proliferation) at 1 μmol/L, HCT-116 / viability at 1 µM: HCT-116 cells; for pIC50: concentration for 50% inhibition of cell proliferation, read-out: IC50 (μmol/L) HCT-116 (Sphere IC50 value); for inhibitory effect on the sphere-forming ability of cancer cells: Test Example 1, summary in words, cell line not given (HCT-116, HT-29, FaDu tested); for (100%-inhibition rate of cell proliferation) at 1 μmol/L, HCT-116 / viability at 1 µM: value with %, 1 μmol/L; for viability at 1 µM: read-out: (100%-inhibition rate of cell proliferation) at 1 μmol/L
Excerpt: as §1, §2

Row | pIC50 [1] | pIC50 [2] | pIC50 [3] | SMILES | other results
1 | – | – | – | O=C(/C=C/c1ccc2[nH]ccc2c1)Nc1cn(Cc2cccc(Cl)c2)cn1 [Example 47, (E)-N-(1-(3-Chlorobenzyl)-1H-imidazol-4-yl)-3-(1H-indol-5-yl)acrylamide] | pIC50 ([1]; Homo sapiens): 6.15; pIC50 ([2]; Homo sapiens): 6.12; pIC50 ([3]; Homo sapiens): 6.05
2 | 7.22 | 7.10 | 7.00 | Cc1ccc(/C=C/C(=O)Nc2cn(Cc3cccc(Cl)c3)cn2)cc1 [Example 49] | inhibitory effect on the sphere-forming ability of cancer cells [3]: particularly potent inhibitory effect
3 | – | – | – | COc1ccc(C(=O)Nc2cn(Cc3ccc(C(C)C)cc3)cn2)cc1OC [Example 168] | (100%-inhibition rate of cell proliferation) at 1 μmol/L, HT-29 [1]: 8.6%; (100%-inhibition rate of cell proliferation) at 1 μmol/L, FaDu [2]: 32.3%; (100%-inhibition rate of cell proliferation) at 1 μmol/L, HCT-116 [3]: 32.1%
4 | 6.18 | 6.07 | 6.06 | CC(C)Oc1ccc(C(=O)Nc2cn(Cc3cccc(OC(F)(F)F)c3)cn2)cn1 [Example 215] | –
5 | 5.58 | 7.22 | 6.02 | O=C(/C=C/c1cccc(O)c1)Nc1cn(Cc2cccc(Cl)c2)cn1 [Example 65] | inhibitory effect on the sphere-forming ability of cancer cells [3]: particularly potent inhibitory effect
6 | 5.37 | 6.11 | < 5.00 | CCOc1ncc(C(=O)Nc2cn(Cc3cccc(Cl)c3)cn2)cc1Cl [Example 220] | –
7 | – | – | – | Cn1cc(C(=O)Nc2cn(Cc3cccc(Cl)c3)cn2)ccc1=O [Example 243] | viability at 1 µM ([1]; Homo sapiens): 19.5%; viability at 1 µM ([2]; Homo sapiens): 29%; viability at 1 µM ([3]; Homo sapiens): 23.8%
8 | 6.15 | 6.07 | 6.10 | O=C(/C=C/c1cccc(Oc2ccccc2)c1)Nc1cn(Cc2cccc(Cl)c2)cn1 [Example 79] | –
9 | – | – | – | O=C(/C=C/c1cncc(Br)c1)Nc1cn(Cc2cccc(Cl)c2)cn1 [Example 45] | pIC50 ([1]; Homo sapiens): 6.06; pIC50 ([2]; Homo sapiens): 6.09; pIC50 ([3]; Homo sapiens): 5.20
10 | – | – | – | O=C(Nc1cn(Cc2cccc(Cl)c2)cn1)c1cncc(Br)c1 [Example 283] | viability at 1 µM ([1]; Homo sapiens): 44.7%; viability at 1 µM ([2]; Homo sapiens): 50%; viability at 1 µM ([3]; Homo sapiens): 75.6%
11 | 7.30 | 7.22 | 7.10 | O=C(/C=C/c1ccncc1)Nc1cn(Cc2cccc(Cl)c2)cn1 [Example 97] | inhibitory effect on the sphere-forming ability of cancer cells [3]: particularly potent inhibitory effect
12 | – | – | – | Cc1ccc(F)c(Cn2cnc(NC(=O)/C=C/c3cccnc3)c2)c1F [Example 113] | pIC50 ([1]; Homo sapiens): 6.28; pIC50 ([2]; Homo sapiens): < 5.00; pIC50 ([3]; Homo sapiens): 6.27
13 | 6.01 | 5.34 | 5.10 | O=C(/C=C/c1cccs1)Nc1cn(Cc2cccc(Cl)c2)cn1 [Example 94] | –
14 | 6.32 | 6.12 | 6.66 | Cc1ccc(F)c(Cn2cnc(NC(=O)c3ccc(OC(C)C)nc3)c2)c1F [Example 217] | –
15 | – | – | – | COc1cc(/C=C/C(=O)Nc2cn(Cc3cccc(Cl)c3)cn2)ccc1O [Example 24] | pIC50 ([1]; Homo sapiens): < 5.00; pIC50 ([2]; Homo sapiens): 5.22; pIC50 ([3]; Homo sapiens): 5.13
16 | 5.26 | 5.26 | 5.17 | Nc1ccc(C(=O)Nc2cn(Cc3cccc(Cl)c3)cn2)cn1 [Example 224] | –
17 | – | – | – | O=C(/C=C/c1ccc(C(=O)N2CCCC2)nc1)Nc1cn(Cc2cccc(Cl)c2)cn1 [Example 28] | pIC50 ([1]; Homo sapiens): 6.04; pIC50 ([2]; Homo sapiens): 6.10; pIC50 ([3]; Homo sapiens): 5.10
18 | 6.23 | 6.05 | 6.29 | CCOc1ccc(C(=O)Nc2cn(Cc3c(F)ccc(C)c3F)cn2)cn1 [Example 221] | –
19 | – | – | – | COc1ccc(C(=O)Nc2cn(Cc3ccc(C(F)(F)F)cc3)cn2)cc1OC [Example 287] | (100%-inhibition rate of cell proliferation) at 1 μmol/L, HT-29 [1]: 124%; (100%-inhibition rate of cell proliferation) at 1 μmol/L, FaDu [2]: 53.0%; (100%-inhibition rate of cell proliferation) at 1 μmol/L, HCT-116 [3]: 95.8%
